Data on 4 compounds can be found in patent publication US10100077B2, “6-aryl-9-glycosylpurines and use thereof” (UNIVERZITA PALACKEHO V OLOMOUCI, priority 2014, dated 2018).

Data set [1] relates to Vaccinia virus and Herpes simplex virus. Particulars: cited from earlier work.
The subject of data set [2] is skin fibroblasts BJ and keratinocytes HaCaT. Description: SRB in vitro toxicity test. The class given is cell-based. Particulars: Homo sapiens, 72 hour treatment, maximal concentration 50 microM. The protocol: SRB (sulforhodamine B) assay is a standard toxicity test based on a photometric measurement of the cellular protein content after the staining with sulphorhodamine B. Using the assay, the effects of 72 hour treatments with several concentrations of the compounds (sixfold dilution, maximal concentration=50 microM) on viability of skin fibroblasts BJ and keratinocytes HaCaT were evaluated. About 5,000 cells were seeded per well of a 96-well plate 24 hours before the treatment. DMSO vehiculum was used as a negative non-toxic control. 6-benzylaminopurine riboside a 6-furfurylaminopurin riboside were used as positive toxic controls. After three days the medium was removed and the cells fixed with 10% (wt/vol) trichloroacetic acid. After the extensive washing in distilled water, 0.4% (wt/vol) solution of SRB in acetic acid was added and the fixed cells were stained for 30 minutes. The unbound stain was washed away by distilled water and the bound SRB was solubilized in unbuffered 10 mM Tris base. Absorbance was measured at 564 nm. IC50 values were calculated from dose-response curves.

The nature of data set [3]: Calcein AM cytotoxicity assay, K562. The data set is classed as cell-based, human. Particulars: human, K562 erythroleukemia cells. From the text:
(§1) One of the parameters used as the base for cytotoxic analysis is metabolic activity of viable cells, such as microtiter assay, which uses the Calcein AM, is now widely used to quantitate cell proliferation and cytotoxicity. The quantity of reduced Calcein AM corresponds to the number of viable cells in culture. The cell lines of breast cancer (MCF-7), mousse fibroblasts (NIH3T3), human erythromleukemia (K562) were used for routine screening of cytotoxicity of the compounds. The cells were maintened in Nunc/Corning 80 cm^2 plastic bottles and grown in media for cell culture (DMEM containing 5 g/l of glucose, 2 mM of glutamin, 100 U/ml of penicilin, […] of streptomycin, 10% of fetal bovine serum and sodium hydrogencarbonate). Cell suspensions were diluted according to cell types and according to expected final cell density (10^4 of cells per well according to characteristics of cell growth), pipetted 80 μl of cell suspension on 96-well microtiter plates. Innoculates were stabilized by 24 hrs preincubation at 37° C. in CO2. Particular concentrations of tested compounds were added in time zero as 20 μl aliquotto wells of microtiter plates. Usually, the compounds were diluted into six concentrations in four-fold dilution series. In routine testing, the highest well concentration was 166.7 μM, of change dependent on the substance. All drug concentrations were examined in duplicates. The incubation of cells with tested derivatives lasted 72 hrs at 37° C., 100% humidity and in the atmosphere of CO2. At the end of the incubation period, the cells were tested and analysed according to the addition of Calcein AM (Molecular probes) solution and the incubation lasted for next 1 hour. Fluorescence (FD) was measured using Labsystem FIA reader Fluorskan Ascent (Microsystems). The survival of tumor cells (The tumor cell survival-TCS) was counted according to equation: […]=(FDwell with derivative/FDcontrol well)×100%. The value of GI50, that is equal to the concentration of compound at which 50% of tumour cells are terminated. To evaluate the antitumor activity was tested toxicity of new derivatives on panel of cell lines of different histogenetic and species origin (Tab. 7, G150 concentration given in μM). […] Effective derivatives killed tumor cells in concentrations close to 0.1 to 50. None of the newly prepared compounds only reached the value.

Data set [4] in a line: Calcein AM cytotoxicity assay, NIH3T3. The data set is classed as cell-based, mouse. Particulars: mouse, NIH3T3 fibroblasts.
Description: as §1

Data set [5] is described as follows: Calcein AM cytotoxicity assay, MCF-7. The data set is classed as cell-based. Particulars: human, MCF-7 breast cancer cells.
Description: as §1

Data set [6] deals with BJ skin fibroblasts. Description: One-step growth curve. The class given is cell-based. Particulars: 12.5 to 100 μM, counted on 7th and 14th day. The procedure: The experiments were performed with BJ skin fibroblasts in 24-well tissue culture plates. About 10,000 cells in culture medium comprising DMEM with 10% FBS were seeded into the individual wells. The cells were allowed to attach for 24 hourse. The test compound was added to final concentrations in a range from 12.5 to 100 μM. DMSO vehiculum was also tested. In order to control for variability, two plate columns (A, D) were treated with DMSO vehiculum. The culture medium with the test chemicals or DMSO vehiculum was changed twice a week. Following trypsinization, the numbers of cells in 4 wells for each concentration were counted using Coulter counter on 7th and 14th day.

Data set [7] has as its system skin fibroblasts BJ and keratinocytes HaCaT. Description: MTT in vitro cytotoxicity test for skin cells. The data set is classed as cell-based. Particulars: Homo sapiens; MTT, 72 hour treatment, BJ and HaCaT, maximal concentration 50 microM. The protocol: MTT assay is a standard test of toxicity based on photometric measurement of the ability of metabolically active cells to reduce MTT (3-(4,5-dimethylthiazol-2-yl)-2,5-diphenyltetrazolium bromide). Using the assay, the effects of 72 hour treatments with several concentrations of the compounds (sixfold dilution, maximal concentration=50 microM) on viability of skin fibroblasts BJ and keratinocytes HaCaT were evaluated. About 5,000 cells were seeded per well of a 96-well plate 24 hours before the treatment. DMSO vehiculum was used as a negative control. After 72 hour treatment, new medium with MTT (Sigma, M2128) was added to a final concentration of 0.5 mg/ml. After 3 hours, medium was removed and resulting formazan in the cells was dissolved in DMSO. The absorbance was measured at 570 nm (640 nm reference wavelength). The IC50 values were calculated from the dose-response curves. 6-Benzylaminopurine riboside and 6-furfurylaminopurine riboside were used as positive controls they were toxic in the MTT test.

Data set [8] has as its system Vaccinia virus, strain IHD. Particulars: cited from earlier work.
In data set [9] the test system is detached leaf segments of Triticum aestivum cv. Hereward. The data set can be described thus: Senescence bioassay on wheat leaf segments (chlorophyll retention). Particulars: chlorophyll retention at maximum effective concentration, 96 h dark. The protocol: Seeds of winter wheat, Triticum aestivum cv. Hereward, were washed under running water for 24 hours and then sown on vermiculite soaked with Knop's solution. They were placed in the growth chamber at 25° C. with a 16/8 h light period at 50 μmol·m^−2·s^−1. After 7 days, the first leaf was fully developed and the second leaf had started to grow. A tip section of the first leaf, approximately 35 mm long, was removed from 5 seedlings and trimmed slightly to a combined weight of 100 mg. The basal ends of the five leaf tips were placed in the wells of a microtiter polystyrene plate containing 150 μL, of the tested derivative solution each. The entire plate was inserted into a plastic box lined with paper tissues soaked in distilled water to prevent leaf sections from drying out. After 96 h incubation in the dark at 25° C., the leaves were removed and chlorophyll extracted by heating at 80° C. for 10 min in 5 mL of 80% ethanol (v/v). The sample volume was then restored to 5 mL by the addition of 80% ethanol (v/v). The absorbance of the extract was recorded at 665 nm. In addition, chlorophyll extracts from fresh leaves and leaf tips incubated in deionised water were measured. The results are means of five replicates and the entire test was repeated twice. […] The compounds to be tested were dissolved in dimethylsulfoxide (DMSO) and the solution brought up to 10^−3M with distilled water. This stock solution was further diluted with the respective media used for the biotest to a concentration ranging from 10^−8M to 10^−4M. […] The activity obtained for 10^−4 M of BAP was postulated as 100%.

For data set [10], the system named is EpiDERM 3D model of epidermis. The data set can be described thus: In vitro test of skin irritation in EpiDERM. The class given is cell-based. The procedure: EpiDERM™ is a 3D model of epidermis manufactured by Mattek company. The effects of tested substances are evaluated by MTT. 2 solutions (2 application forms) of the compounds 6-furfurylamino-9-β-D-arabinofuranosylpurine and 6-(3-methoxybenzylamino)-9-β-D-arabinofuranosylpurine in concentrations 1 mM a 200 microM in 0.5% DMSO/99.5% PBS were evaluated according to a standard protocol “INVITRO EpiDerm™ SKIN IRRITATION TEST”. After a preincubation of the tissues, 30 microliters of the application form solution were applied on the individual tissues. The exposition time was 60 minutes. Three tissues were used for each tested concentration as well as for controls. Following washing out of the applied solution, the tissues were incubated for 42 hour in order to allow a reparation of possible damage. In the next step, the tissue was incubated with MTT for 3 hours. The resulting formazan was extracted to isopropanol. Relative viability of the individual tissues was calculated as a percentage of viability of the average of the negative controls. Average viability of the tissues treated with 1 mM solution of the test substance was 99.3% for the compound 6-(3-methoxybenzylamino)-9-β-D-arabinofuranosylpurine and 98.0% for the compound 6-(furfurylamino)-9-β-D-arabinofuranosylpurine where 100% is an average viability of the tissues treated with the solvent only. None of the tested compounds in any of the concentrations caused any tissue damage or irritation. The compounds were evaluated as non-irritant in the tested concentrations.

What is called IC50 is the midpoint of a concentration-inhibition curve. A high value points to lower potency. In general, GI50 refers to the concentration at which growth is held to half of that of the control.

With `OC[C@H]1O[C@@H](n2cnc3c(NCc4ccccc4)ncnc32)[C@@H](O)[C@@H]1O` [6-benzylamino-9-β-D-arabinofuranosylpurine], the “activity in killing Vaccinia virus and Herpes simplex virus” value in [1] was “No effect”. In addition, the half-maximal inhibitory concentration (IC50) in [2] and in data set [7] was over 50 µM each time. The GI50 at 72 h in data set [3], in data set [4] and in data set [5] was over 100 µM throughout. Further, the “influence on cell viability (cell numbers, growth curve)” value in data set [6] is “did not have a negative influence on cell viability”.
Take `Cc1ccc(C)c(CNc2ncnc3c2ncn3C2OC(CO)C(O)C2O)c1` (centres unmarked) [2,5-dimethylbenzyl]: the “activity against Vaccinia virus, strain IHD” value in [8] is listed as “low activity”.
On to `OC[C@H]1O[C@@H](n2cnc3c(NCc4ccco4)ncnc32)[C@@H](O)[C@@H]1O` [6-furfurylamino-9-β-D-arabinofuranosylpurine], for which the 50% inhibitory concentration (IC50) in data set [2] and in data set [7] was over 50 µM throughout. The GI50 at 72 h in [3], in [4] and in data set [5] was over 100 µM in each case. For the same compound, the “activity (%) [10^−4 mol · l^−1 BAP = 100%]” value in data set [9] was determined as 193 ± 1%. In addition, the skin irritation evaluation entry in data set [10] (1 mM and 200 microM in 0.5% DMSO/99.5% PBS) is “non-irritant”. Further, the “Average viability of the tissues” value in data set [10] (1 mM solution, 60 minutes exposition, 100% = solvent only) is 98.0%.
For the compound `Cc1ccc(CNc2ncnc3c2ncn3C2OC(CO)C(O)C2O)c(C)c1` (centres unmarked) [2,4-dimethylbenzyl], in data set [8], the “activity against Vaccinia virus, strain IHD” value is on record as “low activity”.
